Source: PubChem BioAssay AID493182 (Sanford-Burnham Center for Chemical Genomics, 2011)

Each compound was assayed against Ubiquitin-conjugating enzyme E2 N (Homo sapiens) (UniProt P61088) (assay: concentration-dependent UBC13 chain formation blockade – biochemical, TR-FRET, reconfirmation, dose response (AID 493182)). Settings: UBC13 polyubiquitination; call rule not given here.
Sequence of Ubiquitin-conjugating enzyme E2 N (Homo sapiens) (P61088 whole entry, looked up): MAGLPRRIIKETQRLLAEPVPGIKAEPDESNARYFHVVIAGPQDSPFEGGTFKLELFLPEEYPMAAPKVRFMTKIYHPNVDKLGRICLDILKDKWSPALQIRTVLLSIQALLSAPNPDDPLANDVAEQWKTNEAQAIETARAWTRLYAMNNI

IC50, active:
C#CCOCCOCCOCCNc1nc(N2CCN(C(=O)CCCCCCCCCCNC(=O)[C@H](CCCCN)n3cc(CCO)nn3)CC2)nc(N2CCN(C(=O)CCCCCCCCCCNC(=O)[C@H](CCCCN)n3cc(CCO)nn3)CC2)n1 4.73 µM, Cc1ccc(N(C(=O)c2snc(C(N)=O)c2N)C(C(=O)NCC2CCCO2)c2c[nH]c3ccccc23)cc1 (configuration not stated) 12.1 µM, CCC[C@@H](CN1CCC[C@H]1CN1C(N)=NC[C@H]1CC(C)C)N1C[C@@H](Cc2ccccc2)N(CCc2ccc(Cl)c(Cl)c2)C1=N 12.6 µM, CCCCCCCCCCC[N+](C)(C)CC/C=C1/c2ccccc2Sc2ccc(Cl)cc21 4.77 µM, O=C(CSc1nc2ccsc2c(=O)n1Cc1ccc(C(=O)O)cc1)NCC1CCCO1 (configuration not stated) 17.3 µM, C#CCOCCOCCOCCNc1nc(N2CCN(C(=O)C([C@@H](C)O)n3cc([C@@H](N)CCCCN)nn3)CC2)nc(N2CCN(C(=O)[C@H](CCCCN)n3cc(CN)nn3)CC2)n1 (some centres not stated) 3.71 µM, N#Cc1ccc(OCC(=O)NNC(=S)NC(=O)C2CC2)cc1 6.43 µM
